{"source": "patent US20100016262A1", "about": "“Compositions and methods for reducing hepatotoxicity associated with drug administration and treating non-alcoholic fatty liver disease, non-alcoholic steatohepatitis and associated cirrhosis” (YALE UNIVERSITY, priority 2007, published 2010)", "key": {"wild-type mice": {"system": "wild-type mice", "assay": "Acetaminophen (APAP) induced hepatotoxicity in mice (500 mg/kg ip)", "format": "in vivo, mouse", "procedure": "• Animals. C57BL/6 mice were purchased from commercial sources. NALP3 −/−, IL-18 −/− ASC −/−, IPAF −/− and TLR9−/− mice were backcrossed nine generations onto the C57BL/6 background. Caspase 1 −/− mice were backcrossed 5-6 generations onto the C57BL/6 background. These mice have been described previously(39, 40). IL-1β was neutralized in by using the anti-IL-1β antibody from clone B 122 (a gift of R. Schreiber, Washington University) at a dose of 0.2 mg/mouse iv twice a day for a total of 48 hours after giving APAP. Control mice received Armenian hamster isotype control antibody. For survival experiments animals were euthanized when they became moribund using criteria of lack of response to stimuli or lack of righting reflex. Animal protocols were approved by the Yale University animal care and use committee. [include references for IPAF−/− (M. Lara-Tejero et al. JEM 2006) and IL-18−/−. Need to add TLR9−/− and TLR3−/−] • Acetaminophen induced hepatotoxicity. APAP (Sigma, MO) solution was made fresh for each experiment in PBS at 20 mg/ml and heated in a water bath to 55° C. to dissolve. APAP was dosed at 500 mg/kg and injected I.P after 15 hrs of starvation. Animals were euthanized by ketamine/xylazine injection at 12 hours for collection of serum, isolation of liver lymphocytes or collection of liver tissue for histology, or they were observed every four hours for 72 hours until they reached criteria for euthanasia (lack of response to stimuli or lack of righting reflex). • Aspirin/clopidogrel/SC-560. Aspirin (Sigma, MO) was made fresh for each experiment. For dosing prior to APAP it was dissolved in single deionized water at 60 mg/l and heated to 42° C. with rapid stirring to dissolve, then rapidly placed in an ice water bath to cool. Aspirin in water was given to the mice 60-72 hours prior to APAP injection. Assuming water consumption of 3-5 ml per day this dose would be equivalent to a 300-500 mg dose in an 80 kg adult human. For co-administration of APAP and aspirin, aspirin was gavaged at a dose of 6 mg/kg in a volume of 100 ul of water immediately after ip injection of APAP. Clopidogrel (Gilead Pharmaceuticals, CA.) was dissolved in PBS at 6 mg/ml and administered by gavage of 100 ul, 30 mg/kg, every 24 hours beginning 48 hours prior and ending 24 hours after APAP injection. Cox-1 inhibitor (SC-560). SC-560 (Cayman chemical, MI) was dissolved at 50 mg/ml in DMSO and further dissolved in PBS in order to gavage a dose of 5 mg/kg in 100 ul. It was administered twice per day beginning 60 hours prior to Tylenol and continued for 48 hours after APAP injection as previously established(41). • Uric Acid Peritonitis. Peritonitis was induced with uric acid crystals as previously described by injecting 3 mg of MSU intraperitoneally per mouse(27). Three hours after injection peritoneal lavage was performed on mice euthanized by isoflurane inhalation. Neutrophil infiltration was evaluated by flow cytometry. The percent of Gr-1 (BD Pharmingen, CA) positive cells was multiplied by the total cell counts. • Liver sinusoidal endothelial cell (LSEC) isolation. After in-situ pronase digestion the non-parenchymal cell suspension is centrifuged for 5 min at 100 g to remove most of the parenchymal cells. This process is repeated until no pellet is observed. The supernatant enriched in LSEC is centrifuged for 10 min at 350 g. The pellet is resuspended in PBS and centrifuged for 10 min at 350 g. The cells are resuspended in PBS and layered (3.3 ml) on the top of two-step percoll gradient (put the 5 ml of 50% percoll at the bottom and put the 6.6 ml of 25% percoll at the top). The gradients are centrifuged at 900 g for 20 min and the intermediate layer included LSEC is collected and cultured in the media (EGM™-2 MV—Microvascular Endothelial Cell Medium-2, CAMBREX, Charles City, Iowa). • ODN2088 and IRS 954 injection."}, "NALP3 inflammasome": {"biological_target": "T1, NALP3 inflammasome (Mus musculus, UniProt Q8R4B8)", "T1 construct": "endogenous in cells; host or cells: living C57BL/6 wild-type mice (peritoneal cavity, in vivo)", "T1 sequence (Q8R4B8 whole entry)": "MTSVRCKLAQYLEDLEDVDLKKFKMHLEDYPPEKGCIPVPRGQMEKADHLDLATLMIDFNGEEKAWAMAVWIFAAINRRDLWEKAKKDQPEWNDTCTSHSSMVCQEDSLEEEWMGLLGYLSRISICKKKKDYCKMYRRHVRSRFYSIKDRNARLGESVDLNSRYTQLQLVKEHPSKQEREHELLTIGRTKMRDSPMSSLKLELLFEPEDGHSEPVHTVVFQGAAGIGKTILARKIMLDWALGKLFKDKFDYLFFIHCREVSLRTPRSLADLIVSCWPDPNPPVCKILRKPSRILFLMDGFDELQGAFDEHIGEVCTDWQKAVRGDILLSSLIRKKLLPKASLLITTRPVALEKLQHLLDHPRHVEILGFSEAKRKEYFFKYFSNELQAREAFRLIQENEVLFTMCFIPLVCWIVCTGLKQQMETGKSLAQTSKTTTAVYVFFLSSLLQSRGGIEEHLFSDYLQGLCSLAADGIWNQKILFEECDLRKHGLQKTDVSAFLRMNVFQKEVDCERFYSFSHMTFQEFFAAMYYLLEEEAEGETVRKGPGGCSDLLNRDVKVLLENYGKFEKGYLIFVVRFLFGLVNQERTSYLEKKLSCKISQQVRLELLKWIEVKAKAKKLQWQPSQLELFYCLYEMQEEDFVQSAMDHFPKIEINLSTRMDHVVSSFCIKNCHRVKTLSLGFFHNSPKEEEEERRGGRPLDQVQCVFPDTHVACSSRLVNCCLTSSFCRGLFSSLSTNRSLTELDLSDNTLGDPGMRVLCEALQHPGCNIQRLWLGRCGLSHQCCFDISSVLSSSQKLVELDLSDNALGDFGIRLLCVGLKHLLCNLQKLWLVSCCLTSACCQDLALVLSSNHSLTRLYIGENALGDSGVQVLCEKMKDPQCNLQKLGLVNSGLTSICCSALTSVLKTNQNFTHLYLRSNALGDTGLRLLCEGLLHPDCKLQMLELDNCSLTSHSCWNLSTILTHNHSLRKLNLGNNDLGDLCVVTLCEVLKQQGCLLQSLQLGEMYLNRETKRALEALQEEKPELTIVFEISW", "assay": "Uric acid (MSU crystal) peritonitis, model of NALP3 inflammasome activation", "format": "in vivo", "conditions": "low dose aspirin (60 mg/l) in drinking water for three days before MSU 3 mg/mouse ip; lavage after 3 hours; P<0.0001", "procedure": "• Animals. C57BL/6 mice were purchased from commercial sources. NALP3 −/−, IL-18 −/− ASC −/−, IPAF −/− and TLR9−/− mice were backcrossed nine generations onto the C57BL/6 background. Caspase 1 −/− mice were backcrossed 5-6 generations onto the C57BL/6 background. These mice have been described previously(39, 40). IL-1β was neutralized in by using the anti-IL-1β antibody from clone B 122 (a gift of R. Schreiber, Washington University) at a dose of 0.2 mg/mouse iv twice a day for a total of 48 hours after giving APAP. Control mice received Armenian hamster isotype control antibody. For survival experiments animals were euthanized when they became moribund using criteria of lack of response to stimuli or lack of righting reflex. Animal protocols were approved by the Yale University animal care and use committee. [include references for IPAF−/− (M. Lara-Tejero et al. JEM 2006) and IL-18−/−. Need to add TLR9−/− and TLR3−/−] • Acetaminophen induced hepatotoxicity. APAP (Sigma, MO) solution was made fresh for each experiment in PBS at 20 mg/ml and heated in a water bath to 55° C. to dissolve. APAP was dosed at 500 mg/kg and injected I.P after 15 hrs of starvation. […] Neutrophil infiltration was evaluated by flow cytometry. […]"}, "THP1 cells": {"system": "THP1 cells", "assay": "LPS stimulation of THP1 cells, real-time PCR for pro-IL-1β", "format": "cell-based, human", "conditions": "overnight with aspirin (1.5 mM, 0.15 mM), then LPS 10 μg/ml for 8 hours; P<0.05"}, "mice and rats": {"system": "mice and rats", "conditions": "aspirin 200-600 mg/kg, dose range toxic to humans; cited from earlier work"}, "[1]": {"conditions": "aspirin pre-treatment, 12 hours after APAP, p<0.03"}, "[2]": {"conditions": "aspirin treatment, after APAP, p<0.005"}}, "note": "Entries after “also recorded” stand apart in the source; their conditions may differ."}
{"molecule": "COc1ccc(-n2nc(C(F)(F)F)cc2-c2ccc(Cl)cc2)cc1", "note": "[SC-560]", "values": [{"measurement": "survival after APAP (protection against APAP toxicity)", "setting": "wild-type mice; SC-560 5 mg/kg gavage twice daily from 60 hours before to 48 hours after APAP, n=10 vs PBS n=10, P<0.97", "result": "did not protect"}]}
{"molecule": "CC(=O)Oc1ccccc1C(=O)O", "note": "[aspirin, acetylsalicylic acid]", "values": [{"measurement": "serum IL-1β levels (ELISA)", "setting": "wild-type mice; ASA in drinking water, after APAP, p<0.02", "result": "significant reduction"}, {"measurement": "survival after APAP", "setting": "wild-type mice; aspirin 60 mg/l in drinking water for 3 days before APAP 500 mg/kg ip, n=17 vs control n=13, P<0.02", "result": "markedly improved survival"}, {"measurement": "survival", "setting": "wild-type mice; aspirin given concordantly with APAP, 6 mg/kg by gavage immediately after APAP, control 22% ±19%, P<0.04", "result": "43% ±11%"}, {"measurement": "liver histology (H&E), liver injury and hemorrhage", "setting": "wild-type mice; aspirin in drinking water for three days before APAP, 12 hours after APAP", "result": "markedly improved; also recorded: significant reduction in APAP induced liver injury and hemorrhage"}, {"measurement": "pro-IL-1β message, whole liver (real-time PCR)", "setting": "wild-type mice; [1]", "result": "reduced to normal levels"}, {"measurement": "pro-IL-18 message, whole liver (real-time PCR)", "setting": "wild-type mice; [1]", "result": "reduced to normal levels"}, {"measurement": "serum ALT", "setting": "wild-type mice; aspirin pre-treatment, 12 hrs after APAP, P<0.04", "result": "significantly lower"}, {"measurement": "IFN-γ expression, whole liver (real-time PCR)", "setting": "wild-type mice; [2]", "result": "reduced"}, {"measurement": "TNF-α expression, whole liver (real-time PCR)", "setting": "wild-type mice; [2]", "result": "reduced"}, {"measurement": "neutrophil exudates (Gr-1 positive neutrophils in peritoneal lavage)", "setting": "NALP3 inflammasome", "result": "eightfold reduction"}, {"measurement": "pro-IL-1β transcript up-regulation by LPS", "setting": "THP1 cells", "result": "reduced"}, {"measurement": "liver injury from APAP", "setting": "mice and rats", "result": "reduce liver injury"}, {"measurement": "survival from APAP", "setting": "mice and rats", "result": "not improve survival"}]}
{"molecule": "COC(=O)[C@H](c1ccccc1Cl)N1CCc2sccc2C1", "note": "[clopidogrel]", "values": [{"measurement": "survival after APAP (protection against APAP toxicity)", "setting": "wild-type mice; clopidogrel 30 mg/kg gavage every 24 hrs from 48 hours before to 24 hours after APAP, n=15 vs PBS n=15, P<0.31", "result": "did not protect"}]}
